From ChEMBL document CHEMBL1201862, “PubChem BioAssay data set” (2004)
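Each compound was tested at five concentrations against cells in 96-well plates for 48 hours. Abbreviation: GI50, concentration required for 50% inhibition of growth.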 Calls of active or inactive are those of the source. Cut-off read from the data, not from the text of the source: active = GI50 up to about 1.1 µM and inactive = higher.

What was measured:
Assay in all cases: NCI tumour cell line growth inhibition, 48 h
EKVX = tested on: EKVX
OVCAR-8 = tested on: OVCAR-8
HOP-92 = tested on: HOP-92
SR = tested on: SR
MCF7 = tested on: MCF7
NCI-H226 = tested on: NCI-H226
SK-MEL-5 = tested on: SK-MEL-5
UO-31 = tested on: UO-31
HOP-62 = tested on: HOP-62
LOX IMVI = tested on: LOX IMVI
HT-29 = tested on: HT-29
CAKI-1 = tested on: CAKI-1
ACHN = tested on: ACHN
SF-539 = tested on: SF-539
SK-MEL-28 = tested on: SK-MEL-28
M14 = tested on: M14
RPMI-8226 = tested on: RPMI-8226
A549 = tested on: A549
NCI/ADR-RES = tested on: NCI/ADR-RES
CCRF-CEM = tested on: CCRF-CEM

Measured: GI50

Cc1ccc(S(=O)(=O)NC(=O)OC23COCN2COC3)cc1
inactive: EKVX > 100 µM | OVCAR-8 > 100 µM | HOP-92 > 100 µM | SR 31.6 µM | MCF7 91 µM | NCI-H226 > 100 µM | SK-MEL-5 > 100 µM | UO-31 > 100 µM | HOP-62 > 100 µM | LOX IMVI > 100 µM | HT-29 > 100 µM | CAKI-1 > 100 µM | ACHN > 100 µM | SF-539 > 100 µM | SK-MEL-28 > 100 µM | M14 > 100 µM | RPMI-8226 29.5 µM | A549 > 100 µM | NCI/ADR-RES > 100 µM

CN1C(=O)CC(=O)N1/C(=C/c1ccccc1)c1ccccc1
inactive: EKVX > 100 µM | OVCAR-8 > 100 µM | HOP-92 75.5 µM | SR 76.4 µM | MCF7 47.2 µM | NCI-H226 > 100 µM | SK-MEL-5 72.8 µM | UO-31 18.1 µM | HOP-62 > 100 µM | LOX IMVI 17 µM | HT-29 > 100 µM | CAKI-1 23.7 µM | ACHN 54.1 µM | CCRF-CEM 21.3 µM | SK-MEL-28 > 100 µM | M14 65.8 µM | RPMI-8226 37.1 µM | A549 85.3 µM | NCI/ADR-RES > 100 µM

Cc1ccc2c3c1[C@@H]1O[C@@H]1c1cccc(c1-3)[C@@H]1O[C@H]21
inactive: EKVX 16.1 µM | OVCAR-8 11.5 µM | HOP-92 18.1 µM | SR 11.5 µM | MCF7 4.66 µM | NCI-H226 28.2 µM | SK-MEL-5 15 µM | UO-31 12 µM | HOP-62 15.7 µM | LOX IMVI 2.4 µM | HT-29 6.07 µM | CAKI-1 16.4 µM | ACHN 12.7 µM | SK-MEL-28 10.2 µM | M14 11 µM | A549 15.9 µM | NCI/ADR-RES 18.2 µM

Cc1ccc(C(=O)Cc2nc3c([nH]c2=O)c(C)nn3-c2ccccc2)c(C)c1
inactive: OVCAR-8 8.22 µM | HOP-92 6.04 µM | SR > 10 µM | MCF7 > 10 µM | SK-MEL-5 > 10 µM | HOP-62 > 10 µM | LOX IMVI > 10 µM | HT-29 > 10 µM | CAKI-1 > 10 µM | ACHN > 10 µM | SF-539 > 10 µM | CCRF-CEM 5.69 µM | SK-MEL-28 > 10 µM | M14 > 10 µM | RPMI-8226 > 10 µM | A549 6.85 µM | NCI/ADR-RES 6.53 µM

COc1cccc(N2C(=O)CSC2c2cccc(Oc3ccccc3)c2)c1 (stereo not drawn)
inactive: EKVX 13.8 µM | OVCAR-8 8.69 µM | HOP-92 6.21 µM | SR 3.79 µM | MCF7 2.48 µM | NCI-H226 8.32 µM | SK-MEL-5 4.36 µM | UO-31 9.66 µM | HOP-62 9.38 µM | LOX IMVI 6.87 µM | HT-29 4.28 µM | CAKI-1 2.03 µM | ACHN 6.17 µM | SF-539 4.27 µM | CCRF-CEM 9.33 µM | SK-MEL-28 19 µM | M14 4.79 µM | A549 9.53 µM | NCI/ADR-RES 3.61 µM

C=CCc1cccc2cc(C(=O)Nc3ccc(C)cc3)c(=N)oc12
inactive: EKVX > 100 µM | OVCAR-8 > 100 µM | HOP-92 > 100 µM | SR > 100 µM | MCF7 > 100 µM | NCI-H226 33.9 µM | SK-MEL-5 > 100 µM | HOP-62 > 100 µM | LOX IMVI > 100 µM | HT-29 > 100 µM | CAKI-1 > 100 µM | ACHN > 100 µM | CCRF-CEM > 100 µM | SK-MEL-28 > 100 µM | M14 > 100 µM | RPMI-8226 > 100 µM | A549 > 100 µM | NCI/ADR-RES > 100 µM

CCOC(=O)C1(C(F)(F)F)N=C(CC)OC(N2CCOCC2)=N1 (stereo not drawn)
inactive: EKVX > 100 µM | OVCAR-8 > 100 µM | HOP-92 > 100 µM | SR > 100 µM | MCF7 > 100 µM | SK-MEL-5 > 100 µM | UO-31 > 100 µM | LOX IMVI > 100 µM | HT-29 > 100 µM | CAKI-1 > 100 µM | ACHN > 100 µM | SF-539 > 100 µM | CCRF-CEM > 100 µM | SK-MEL-28 > 100 µM | M14 > 100 µM | RPMI-8226 > 100 µM | A549 > 100 µM | NCI/ADR-RES > 100 µM

CN(C1=NCCO1)c1cccc2ccccc12
inactive: EKVX > 10 µM | OVCAR-8 > 10 µM | SR > 10 µM | MCF7 > 10 µM | NCI-H226 > 10 µM | SK-MEL-5 > 10 µM | UO-31 > 10 µM | HOP-62 > 10 µM | LOX IMVI > 10 µM | HT-29 > 10 µM | CAKI-1 > 10 µM | ACHN > 10 µM | SF-539 > 10 µM | CCRF-CEM > 10 µM | SK-MEL-28 > 10 µM | M14 > 10 µM | RPMI-8226 > 10 µM | A549 > 10 µM | NCI/ADR-RES > 10 µM

Cc1cc(=O)nc(S(=O)(=O)NC(=S)Nc2ccc(Cl)cc2)[nH]1
inactive: EKVX 39.5 µM | OVCAR-8 > 100 µM | HOP-92 > 100 µM | SR 18.8 µM | MCF7 > 100 µM | NCI-H226 > 100 µM | SK-MEL-5 > 100 µM | UO-31 > 100 µM | HOP-62 > 100 µM | HT-29 > 100 µM | CAKI-1 77.8 µM | ACHN > 100 µM | SF-539 > 100 µM | CCRF-CEM > 100 µM | SK-MEL-28 > 100 µM | M14 > 100 µM | RPMI-8226 34.4 µM | A549 > 100 µM | NCI/ADR-RES > 100 µM

CC12CCC(=O)[C@@]1(C)CCCC2O (stereo partly drawn)
inactive: EKVX > 100 µM | OVCAR-8 > 100 µM | SR > 100 µM | MCF7 > 100 µM | NCI-H226 > 100 µM | SK-MEL-5 > 100 µM | UO-31 > 100 µM | HOP-62 > 100 µM | LOX IMVI > 100 µM | HT-29 > 100 µM | CAKI-1 > 100 µM | ACHN > 100 µM | SF-539 > 100 µM | CCRF-CEM > 100 µM | SK-MEL-28 > 100 µM | M14 > 100 µM | RPMI-8226 > 100 µM | A549 > 100 µM | NCI/ADR-RES > 100 µM

O=C(O)c1ccc(C(=O)O)c2c(C(=O)O)ccc(C(=O)O)c12
inactive: EKVX > 100 µM | OVCAR-8 > 100 µM | HOP-92 > 100 µM | SR > 100 µM | MCF7 > 100 µM | NCI-H226 > 100 µM | SK-MEL-5 > 100 µM | UO-31 > 100 µM | HOP-62 > 100 µM | LOX IMVI > 100 µM | HT-29 > 100 µM | CAKI-1 > 100 µM | ACHN > 100 µM | SF-539 > 100 µM | SK-MEL-28 > 100 µM | M14 > 100 µM | RPMI-8226 > 100 µM | A549 > 100 µM | NCI/ADR-RES > 100 µM
